# Laboratory results: US11576923B2, “Composition for improving skin elasticity comprising novel ginsenoside” (AMOREPACIFIC CORPORATION, priority 2019, dated 2023)
# Columns and labels:
# Assay type in all cases: cell-based
# SH-SY5Y cells = experiment: Cytotoxicity (CCK-8 cell viability); details: 0.1, 1, 5, 10, 20 and 50 μM, FIG. 19
# Protocol: Cell growth in the presence of the novel ginsenoside GS #10 according to an exemplary embodiment of the present disclosure was evaluated using a cell counting kit (CCK-8) in order to exclude the possibility that the ginsenoside may affect the effect of improving skin elasticity or improving wrinkles through cytotoxic activity. The experimental method is as follows.
# 10 μL of a CCK-8 reagent was added to SH-SY5Y cells (Dojindo, Md., USA) in a 96-well plate and left at 37° C. for 2 hours. Then, absorbance was measured at 450 nm. Cell viability was represented as the percentage (%) of the absolute optical density of each sample relative to an untreated sample. The concentration of the novel ginsenoside GS #10 according to an exemplary embodiment of the present disclosure in the medium in which the cells were cultured was 0.1, 1, 5, 10, 20 and 50 μM, respectively.
# [1] = tested on: matrix metalloproteinase-1 (MMP-1) expression in normal human dermal fibroblasts (NHDFs); experiment: Collagen degradation-inhibiting effect (TNFα-induced MMP-1 mRNA by Q-PCR, secreted MMP-1 protein by ELISA)
# From the text: For skin elasticity to be maintained, the synthesis of collagen should be promoted and its degradation should be inhibited. Because collagen is degraded by matrix metalloproteinase-1 (MMP-1), it was investigated whether the ginseng seed-derived ginsenosides inhibit the expression of the collagen-degrading enzyme. After pretreating normal human dermal fibroblasts (NHDFs; ATCC) with GS #10, which is a novel ginsenoside according to an exemplary embodiment of the present disclosure, and ginsenosides GS #01-GS #06 as comparative examples of the present disclosure, which were isolated from the ginseng seed extract, under a serum-free condition in the same manner as in Test Example 1 for 2 hours at a concentration of 10 μg/mL, respectively, the cells were treated for 24 hours with a substance capable of inducing inflammatory response (TNFα; 10 ng/mL), which can promote the expression of MMP-1. After preparing RNA and cDNA in the same manner as in Test Example 1, the expression of MMP-1 mRNA was investigated by Q-PCR (FIG. 13), and the amount of the secreted MMP-1 protein was analyzed using a human MMP-1 ELISA kit (Abcam) (FIG. 14). […] Through this, it was confirmed that Compound 10 (GS #10), which is a novel ginsenoside of the present disclosure, can effectively improve skin elasticity by alleviating or delaying the decline in skin elasticity and the formation of wrinkles. […]
# [2] = tested on: collagen biosynthesis in normal human dermal fibroblasts (NHDFs); experiment: Collagen biosynthesis-promoting effect (procollagen mRNA by Q-PCR, secreted collagen protein by ELISA)
# Protocol: Normal human dermal fibroblasts (NHDFs; ATCC) were cultured in Dulbecco's modified Eagle's medium (Sigma) supplemented with 10% fetal bovine serum (FBS; Hyclone) and 1 (w/v) % penicillin/streptomycin (Sigma) at 37° C. in a 5% CO2 incubator. For collagen synthesis, after replacing the medium with serum-free Dulbecco's modified Eagle's medium, the cells were treated with GS #10, which is a novel ginsenoside according to an exemplary embodiment of the present disclosure, and ginsenosides GS #01-GS #06 as comparative examples of the present disclosure, which were isolated from the ginseng seed extract, for 24 hours at a concentration of 10 μg/mL, respectively. Fibroblast growth factor 1 (FGF1) was used as a positive control group for inducing collagen synthesis. After recovering the cells and extracting RNA using a TRIzol™ reagent (Thermo), cDNA was synthesized using a ReverdAid 1st strand cDNA synthesis kit (Thermo). Then, the change in the amount of procollagen mRNA was observed using a gene amplifier (CFX96 thermocycler, Bio-Rad) (FIG. 11), and the amount of the collagen protein secreted to the medium was measured using a collagen ELISA kit (Abcam) (FIG. 12) […]
smiles,measurement,setting,value
"CC1(C)C(=O)CC[C@@]2(C)C1[C@@H](O[C@H]1OC(CO)[C@H](O)C(O)C1O[C@H]1OC(CO)[C@H](O)C(O)C1O)C[C@]1(C)C2C[C@@H](O)C2C([C@]3(C)CC[C@H](C(C)(C)O)O3)CC[C@]21C (stereo partly drawn) [Compound 10, (20S,24R)-6-O-β-D-glucopyranosyl(1→2)-β-D-glucopyranoside-dammar-3-one-20,24-epoxy-6a,12b,25-triol]","cytotoxicity (cell viability, CCK-8)",SH-SY5Y cells,did not exhibit cytotoxicity up to 50 μM
same,effect of inhibiting MMP-1 expression as compared to Compounds 1-6,"[1]; NHDFs, 10 μg/mL pretreatment 2 hours, then TNFα 10 ng/mL 24 hours, FIG. 13 and FIG. 14",2-3 times higher
same,effect of inhibiting collagen degradation as compared to the three red ginseng marker ginsenosides,"[1]; Test Example 3, same manner as Test Example 2, FIG. 17 and FIG. 18",remarkably excellent effect of inhibiting collagen degradation
same,increase in the amount of collagen due to promoted collagen biosynthesis,"[2]; NHDFs, 10 μg/mL, 24 hours, serum-free, vs control group (−), FIG. 11 and FIG. 12",about 2 times
same,increase of collagen synthesis,"[2]; Test Example 3, same manner as Test Example 1, FIG. 15 and FIG. 16",≥ 2 times
